Source: US8207189B2, “Compound having affinity for amyloid” (Nihon Medi-Physics Co., Ltd., priority 2007, dated 2012)

Key:
[1] = test system: Salmonella typhimurium TA98; assay: reverse mutation test (Ames test), TA98; format: cell-based
Protocol: (§1) In order to examine gene mutagenicity of Compound 3, 5 and 8, reverse mutation test using Salmonella typhimurium TA98 and TA100 (hereinafter referred to as Ames test) was conducted.
(§2) The test was conducted without addition of S9mix and with addition of S9mix. Dimethylsulfoxide (DMSO) was used as a negative control. A positive control was 2-(2-furyl)-3-(5-nitro-2-furyl)acrylamide (hereinafter referred to as AF-2) in case S9mix was not added, and 2-aminoanthracene (hereinafter referred to as 2-AA) in case S9mix was added.
(§3) As a sample solution to be added to a test plate, each compound was dissolved in DMSO to prepare a solution at a concentration of 50 mg/mL, and further, each solution was diluted with DMSO to prepare a solution with 7 dosage (geometric ratio 3). As a sample solution for preparing a sample of positive control, when TA98 was used as a test strain without addition of S9mix, a solution of AF-2 (compound concentration: 1 μg/mL) in DMSO was prepared; when TA100 was used as a test strain without addition of S9mix, a solution of AF-2 (compound concentration: 0.1 μg/mL) in DMSO was prepared; when TA98 was used as a test strain with addition of S9mix, a solution of 2-AA (compound concentration: 5 μg/mL) in DMSO was prepared; and when TA100 was used as a test strain with addition of S9mix, a solution of 2-AA (compound concentration: 10 μg/mL) in DMSO was prepared.
(§4) After each sample solution to be examined and a test strain (TA98 or TA100) were mixed together so as to make the addition amount of each sample to be 0.1 mL/plate, the mixture was multilayered using soft agar on a medium of a test plate, and then incubated at 37° C. for 48 hours. Separately, after each sample solution to be examined, S9mix and a test strain were mixed together so as to make the addition amount of each sample to be 0.1 mL/plate, the mixture was multilayered using soft agar on a medium of a test plate, and then incubated at 37° C. for 48 hours. On the other hand, only DMSO was used as a sample solution to perform the same procedure as above for the negative control.

[2] = test system: Salmonella typhimurium TA100; assay: reverse mutation test (Ames test), TA100; format: cell-based
Protocol: as §1, §2, §3, §4

[3] = normal mice, [125I]-labeled, cited from earlier work; for transfer into brain: 2 minutes after administration

| Compound | Mutagenicity, TA98, With addition of S9mix [1] | Mutagenicity, TA98, Without addition of S9mix [1] | Mutagenicity, TA100, With addition of S9mix [2] | Mutagenicity, TA100, Without addition of S9mix [2] | transfer into brain [3] | clearance from normal tissues [3] |
| --- | --- | --- | --- | --- | --- | --- |
| OCCOc1ccc(-c2cn3cc(I)ccc3n2)cc1 [Compound 3, 2-[4′-(2″-hydroxyethoxy)phenyl]-6-iodoimidazo[1,2-a]pyridine] | Negative | Negative | Negative | Negative |  |  |
| OCCOc1cccc(-c2cn3cc(I)ccc3n2)c1 [Compound 5, 2-[3′-(2″-hydroxyethoxy)phenyl]-6-iodoimidazo[1,2-a]pyridine] | Negative | Negative | Negative | Negative |  |  |
| CCOc1ccc(-c2cn3cc(I)ccc3n2)cc1 [Compound 8, 2-(4′-ethoxyphenyl)-6-iodoimidazo[1,2-a]pyridine] | Negative | Negative | Negative | Negative |  |  |
| CN(C)c1ccc(-c2nc3ccc(I)cc3o2)cc1 [IBOX, 6-iodo-2-[4′-(N,N-dimethylamino)phenyl]benzoxazole] |  |  |  |  | transferred into brain | insufficient in clearance from normal tissues |
| CN(C)c1ccc(-c2nc3ccc(I)cc3s2)cc1 [TZDM, 6-iodo-2-[4′-(N,N-dimethylamino)phenyl]benzothiazole] |  |  |  |  | transferred into brain | insufficient in clearance from normal tissues |
| CN(C)c1ccc(/C=C/c2ccc(I)cc2)cc1 [m-I-SB, (E)-4-dimethylamino-4′-iodostilbene] |  |  |  |  | transferred into brain | insufficient in clearance from normal tissues |
